From patent US20170014391A1, “SGK1 INHIBITORS FOR TREATMENT OF PROSTATE CANCER” (Sloan-Kettering Institute for Cancer Research, priority 2013, published 2017)
Several values for one entry are separate records, joined by “and”; a condition that tells them apart may be missing. Equal values may be shown once.

Legend:
GR mRNA [1] = assay: GR mRNA in LREX′ cell line in vitro; format: cell-based
Description: (§1) A. GR mRNA in LREX′ xenografts. […] . […] C. […] AUC=area under curve. […] . […] See also FIG. S7.
(§2) RNA was extracted from cell lines using the RNeasy kit (Qiagen). Frozen tumors were lysed with lysing matrix A using the Fast-Prep24 tissue homogenizer system (MP BIOMEDICALS) in Trizol (Invitrogen) followed by clean up with RNeasy (Qiagen). cDNA was generated with the High Capacity cDNA Reverse Transcription Kit (Applied Biosystems.) Data was quantified relative to either beta Actin or GAPDH expression and relative expression was generally plotted. Primers for ACTB (PPH00073E), NDRG1(PPH02202B), NR3C1(PPH02652A), and SGK1(PPH00387E), STK39 (PPH14239B), GRB10 (PPH05866B), TIPARP (PPH07883A), PMEPA1 (PPH01013B) were purchased from SA Biosciences. Other qPCR primers are as follows: […]

[2] = test system: AR target genes in LREX′ cell line; assay: Expression of AR target genes in LREX′ cell line (RT-qPCR); format: cell-based
Description: A. Normalized expression array signal (Illumina HT-12) of a suite of 74 AR target genes in control (n=10), 4 day (n=8), and LREX′ (n=8, right) xenograft tumors. Genes are ranked by degree of restoration of expression in resistant tissue ((Res-4 day)/(Control-4 day)). All resistant tissues were continued on anti-androgen treatment through time of harvest. B. Fractional restoration values of each of the 74 AR targets in LREX′ xenografts (n=8) or resistant tissues from the validation cohort (n=12, see also FIG. S3). C. GR mRNA in resistant tissues used in B. D. Expression of AR target genes in the LREX′ cell line in steroid depleted media after 8 hours of treatment with the indicated agonists, in vitro. Enzalutamide=10 micromolar, V=Vehicle.+/−s.e.m. See also FIGS. S3, S4.
A. LnCaP/AR cells engineered to express GFP or GR were treated with indicated drugs. […] D. Control or AR siRNA knock-down in LREX′ followed by treatment with indicated drugs. […] Cells were treated in charcoal stripped media. Expression determined by RT-qPCR+/−s.e.m.
LREX′ cells were derived from a single enzalutamide resistant tumor that was harvested, disaggregated with collagenase treatment, and then maintained in RPMI supplemented with 20% FBS and 1 μM enzalutamide. Cells were initially grown on collagen-coated flasks until confluent and then were maintained on standard tissue culture dishes. CS1 were similarly derived from vehicle treated tumors and maintained in standard LNCaP/AR media. LNCaP/AR and LREX′ cells were cultured in phenol-red free RPMI with 10% charcoal-stripped FBS prior to drug treatments.
as §2

[3] = test system: LNCaP/AR xenograft tumors; assay: LNCaP/AR xenografts in castrate mice, long-term antiandrogen treatment (pilot cohort); format: in vivo; conditions: for Mean Tumor Volume (mm^3): Day 0: 10 mg/kg oral gavage 5 days a week, start of treatment; for % Regression: D28 Mean: 10 mg/kg, day 28; for Mean Tumor Volume (mm^3) at harvest: harvest after progression on continued treatment; for Day of Harvest: Mean: tumors harvested after progression
[4] = test system: LNCaP/AR xenograft tumors; conditions: previously shown (Clegg et al., 2012; Tran et al., 2009); cited from earlier work
[5] = test system: AR target gene expression; assay: AR target gene expression with GR antagonists; format: cell-based
[6] = test system: GR protein in LREX′ cells; assay: Intracellular GR flow cytometric analysis of LREX′ cells
Experimental: (§3) E. Intracellular GR flow cytometric analysis of indicated cells at indicated times points.
(§4) Cells were re-suspended in Fixation/Permeabilization working solution (eBioscience; San Diego, Calif., USA) at a concentration of 1-2×10^6 cells/ml for 30 minutes at room temperature. The cells were subsequently stained with primary antibodies, Rabbit (DA1E) mAb IgG XP® Isotype Control, androgen receptor (D6F11) XP® Rabbit mAb, or glucocorticoid receptor (D6H2L) XP® Rabbit mAb (Cell Signaling Technology; Danvers, Mass., USA) for 20 minutes at room temperature. The cells were washed twice with Flow Cytometry Staining Buffer (eBioscience; San Diego, Calif., USA), and then stained with secondary antibody, Allophycocyanin-AffiniPure F(ab′)2 Fragment Donkey Anti-Rabbit IgG (Jackson ImmunoResearch Laboratories, Inc.; Westgrove, Pa., USA) for 20 minutes at room temperature. Following two more washes, the cells were re-suspended in Flow Cytometry Staining Buffer and analyzed by flow cytometry on a LSRII (BD Biosciences; San Jose, Calif., USA) using FlowJo software (Tree Star, Ashland, Oreg., USA). For GR staining, cells were maintained in their standard media and treated with dexamethasone for 20 minutes prior to harvest to fully expose antigen.

VCaP cells [7] = assay: VCaP in vitro growth assay (CellTiter-Glo); format: cell-based; conditions: Enz 10 micromolar, standard culture conditions
Experimental: Enz=10 micromolar, Dex=100 nM, CMP 15=1 micromolar. A. Western blot analysis of prostate cancer cell lines. B, C and D. Cell viability assessed by CellTiter-Glo (Promega) assay and normalized to day 1 value after indicated treatments+/−s.e.m. E. Confirmation of GR knock-down by western blot after infection with GR targeting shRNA. F. Apoptosis as assessed by cPARP western blot after 3 days of indicated treatment. G. A suite of AR targets relevant to VCaP was defined (see methods) and normalized expression of each gene after 24 hours of indicated drug treatments is depicted by heat map and ranked by degree of induction with Dex. H. Expression of the top two genes from […]. (KLK2 and FKBP5) after 24 hours of indicated treatments+/−s.e.m. See also FIG. S6.
Viability is plotted normalized to day 1.

PSA = assay: Maximal PSA decline in patients receiving enzalutamide; format: in vivo; conditions: enzalutamide 160 mg daily
LnCaP/AR and sub-lines = assay: In vitro growth by cell counting (Vi-cell); conditions: 1 micromolar, FIG. S7B
Experimental: B. Relative cell numbers determined by cell counting (Vi-cell) of indicated cells with vehicle or 1 micro-molar enzalutamide treatment.
LnCaP/AR and sub-lines: Equivalent numbers of cells were plated and then harvested and counted in triplicate at indicated time points using the Beckman Coulter Vi-Cell XR. Cells were passaged at each time point and identical numbers of cells re-plated. Fold increase in cell numbers were determined for each time interval.

DU145 and PC3 cells = conditions: AR-negative cells; cited from earlier work
GR mRNA [8] = assay: GR mRNA in LREX′ xenografts after enzalutamide discontinuation; format: in vivo, mice; conditions: 8 days after discontinuation, after 7 weeks of 10 mg/kg
Description: as §1, §2

GR [9] = assay: Bone marrow evaluation: GR IHC of tumor cells in patients receiving enzalutamide; format: in vivo; conditions: bone metastases, enzalutamide 160 mg daily
Experimental: Patients were treated with enzalutamide 160 mg daily. Bone marrow biopsy and aspirate (˜5 mL) were performed before treatment and at week 8. The bone marrow specimens were obtained by transiliac biopsy, and samples were processed according to standard MD Anderson Cancer Center decalcification and fixation procedures. After pathologic evaluation, samples were stored in the MD Anderson Cancer Center Prostate Cancer Tissue Bank. Imaging studies were performed at the time of suspected prostate cancer progression or at the treating physician's discretion, but generally not prior to 12 weeks post-treatment initiation. […] Retrospective analysis for GR was performed by IHC on […] formalin-fixed, paraffin-embedded bone marrow biopsy sections with anti-GR at a dilution of 1:200 (BD Transduction Laboratories #611227). A Dako autostainer and standard 3,3-diaminobenzidine were used. GR expression was assessed in a blinded fashion by two pathologists scoring at least 100 tumor cells per specimen. Plotted are either data from all specimens or only from patients with usable material at baseline and 8 weeks.

[10] = test system: GR protein in CS1 or LnCaP/AR; assay: Intracellular GR flow cytometric analysis of CS1 or LnCaP/AR cells; conditions: enzalutamide 1 micromolar, 4 week experiment
Experimental: as §3, §4

LREX′ cells = assay: Expression profiling (global transcriptome) of LREX′ cells; format: cell-based; conditions: enzalutamide 10 micromolar
[11] = Tran et al., 2009; cited from earlier work
VCaP cells [12] = conditions: Tran et al., 2009; cited from earlier work
GR mRNA (NR3C1) = assay: GR mRNA (RT-qPCR) in LNCaP/AR xenograft tumors, validation cohort; format: in vivo, mice; parameters: key: expression relative to beta-actin or GAPDH; conditions: individual tumor with acquired resistance to the drug (10 mg/kg), relative expression
Description: as §2

[13] = in vivo; cited from earlier work
GR [14] = molecular target: GR (Homo sapiens, UniProt P04150); conditions: patients with Cushing syndrome; cited from earlier work
[15] = steroid depleted media, 8 hours
[16] = LREX′^off, enzalutamide 1 micromolar
[17] = enzalutamide 10 micromolar, 8 hours

Sequence of GR (Homo sapiens, UniProt P04150) (P04150 whole entry): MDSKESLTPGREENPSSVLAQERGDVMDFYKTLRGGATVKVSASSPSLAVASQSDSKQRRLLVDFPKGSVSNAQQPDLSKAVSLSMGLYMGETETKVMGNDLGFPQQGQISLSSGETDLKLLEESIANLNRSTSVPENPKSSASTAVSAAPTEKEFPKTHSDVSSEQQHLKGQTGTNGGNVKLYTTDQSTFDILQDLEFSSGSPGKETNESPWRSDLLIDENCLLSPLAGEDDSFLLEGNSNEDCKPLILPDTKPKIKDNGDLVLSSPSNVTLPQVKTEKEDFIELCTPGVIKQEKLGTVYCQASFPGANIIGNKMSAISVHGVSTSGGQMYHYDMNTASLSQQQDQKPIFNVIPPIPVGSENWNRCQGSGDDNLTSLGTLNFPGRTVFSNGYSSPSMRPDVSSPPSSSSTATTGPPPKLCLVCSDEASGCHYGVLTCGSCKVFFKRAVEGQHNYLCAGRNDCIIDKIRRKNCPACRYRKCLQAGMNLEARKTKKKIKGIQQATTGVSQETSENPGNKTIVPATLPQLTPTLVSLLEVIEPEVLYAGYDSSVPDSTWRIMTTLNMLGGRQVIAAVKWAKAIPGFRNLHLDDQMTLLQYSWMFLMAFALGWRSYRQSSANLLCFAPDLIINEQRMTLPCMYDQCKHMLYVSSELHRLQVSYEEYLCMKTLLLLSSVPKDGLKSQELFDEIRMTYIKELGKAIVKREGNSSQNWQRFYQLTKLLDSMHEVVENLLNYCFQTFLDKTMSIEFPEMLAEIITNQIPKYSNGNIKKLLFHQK

With `C[C@]12CCC(=O)C[C@@H]1CC[C@@H]1[C@@H]2CC[C@]2(C)[C@@H](O)CC[C@@H]12` [DHT, dihydrotestosterone] the “GR mRNA levels after DHT exposure” value (GR mRNA [1]; charcoal stripped media, 8 hours) was “reduced”, the “expression of 7 AR targets and PSA (8 genes)” value [2, 15] was “regulated” and the “expression of KLK3 (PSA)” value [2, 15] was “comparably induced”.
For `CNC(=O)c1ccc(N2C(=S)N(c3ccc(C#N)c(C(F)(F)F)c3)C(=O)C23CCC3)cc1F` [RD162], the “Mean Tumor Volume (mm^3): Day 0” value [3] was 379 mm^3, the “% Regression: D28 Mean” value [3] was 80% and the “Mean Tumor Volume (mm^3) at harvest” value [3] was 554 mm^3. The “Day of Harvest: Mean” value [3] was “D173 days” and the “LNCaP/AR xenograft tumors during the first 28 days of treatment” value [4] was “regress”.
With `CC#C[C@]1(O)CCC2C3CCC4=CC(=O)CCC4=C3[C@@H](c3ccc4c(c3)OCO4)C[C@@]21C` (stereo partly drawn) [ORG34517] the “effect on AR target gene expression” value [5] was “activate”.
In the case of `CNC(=O)c1ccc(N2C(=S)N(c3ccc(C#N)c(C(F)(F)F)c3)C(=O)C2(C)C)cc1F` [enzalutamide], the “half-life of exponential decay in median GR protein signal upon withdrawal” value ([6]; LREX′ after enzalutamide withdrawal) is reported as 182 h, the “GR expression after continued drug exposure for 7 weeks” value [6, 16] is reported as “clear shift in GR expression in essentially all cells” and the “doubling time of GR expression on re-exposure” value [6, 16] is reported as 6.8 days. For the same compound, the “time to plateau in loss of GR expression upon withdrawal” value ([6]; followed to 17 weeks) was no more than 7 weeks, the “growth of VCaP cells” value (VCaP cells [7]) was “inhibited growth” and the “good responders with maximal PSA decline greater than 50%” value (PSA; benefit for greater than 6 months) was 11 of 13. For the same compound, the “poor responders with maximal PSA decline greater than 50%” value (PSA; discontinued earlier than 6 months) was 1 of 14, the “GR mRNA levels after withdrawal in vitro” value (GR mRNA [1]; LREX′ passaged without enzalutamide, 23 days) was “dropped as early as 1 day after discontinuation and continued to decline throughout the 23 days” and the “effect of co-treatment on DHT reduction of GR mRNA” value (GR mRNA [1]; [17]) was “reversed”. For the same compound, the “antiproliferative effect in vitro” value (LnCaP/AR and sub-lines) was “weak antiproliferative effect”, the “effect on Dex activity at AR target genes” value ([2]; enzalutamide 10 micromolar) was “did not notably affect” and the “effect on DHT regulation of the 8 genes” value [2, 17] was “blocked”. The “sensitivity of DU145 and PC3 cells” value (DU145 and PC3 cells) was “resistant”, the “drop of GR mRNA levels after treatment discontinuation” value (GR mRNA [8]) was roughly 5 fold and the “mean percentage of GR positive cells at 8 weeks, poor responders” value (GR [9]) was 29%. For the same compound, the “percentage of GR-positive cells at 8 weeks, good responders” value (GR [9]) was 10%, the “median GR expression intensity” value ([10]; cells not previously exposed) was “no change” and the “area under the GR staining population” value [10] was “did increase”. The “effect on Dex-induced gene expression (heatmap)” value (LREX′ cells) was “not impacted”, the half-life in mice [11] was “prolonged half-life” and the “sensitivity of VCaP cells in vitro” value (VCaP cells [12]) was “enzalutamide-sensitive”. The “GR mRNA Expression” value (GR mRNA (NR3C1); listed as Enz) was 29.8 and 24.2 and 24.0 and 14.3 and 0.5 and 127.7 and 53.0 and the “LNCaP/AR xenograft tumors during the first 28 days of treatment” value [4] was “regress”.
In the case of `CC(C)C(=O)Nc1ccc([N+](=O)[O-])c(C(F)(F)F)c1` [flutamide], the “Distribution: Protein-binding” value [13] is given as “Distribution: Protein-binding: 90%” and the Excretion [13] is given as “Urine, faeces (small amounts)”.
With `CNC(=O)c1ccc(N2C(=S)N(c3cnc(C#N)c(C(F)(F)F)c3)C(=O)C23CCC3)cc1F` [ARN-509] the “Mean Tumor Volume (mm^3): Day 0” value [3] was 341 mm^3, the “% Regression: D28 Mean” value [3] was 71% and the “Mean Tumor Volume (mm^3) at harvest” value [3] was 337 mm^3. The “Day of Harvest: Mean” value [3] was “D145 days”, the “GR mRNA Expression” value (GR mRNA (NR3C1); listed as ARN) was 47.4 and 41.6 and 30.2 and 14.5 and 11.4 and 1.4 and 0.8 and 172.1 and 103.8 and the “LNCaP/AR xenograft tumors during the first 28 days of treatment” value [4] was “regress”.
For `CC#C[C@]1(O)CC[C@H]2[C@@H]3CCC4=CC(=O)CCC4=C3[C@@H](c3ccc(N(C)C)cc3)C[C@@]21C` [mefipristone], the “effect on AR target gene expression” value [5] is listed as “activate” and the “risk-benefit of GR inhibition in humans” value (GR [14]) is listed as “acceptable risk-benefit profile”.
